Here are results for three compounds from patent publication US20100249027A1, “CRF CONJUGATES WITH EXTENDED HALF-LIVES” (priority 2007, published 2010).

Series [1] in a line: plasma concentration time profile of hCRF after single intravenous and single subcutaneous injection (ELISA). To be noted: rat; for bioavailability: sc. Format: in vivo, Sprague-Dawley Crl:CD rats. An excerpt: The objective of this study was to determine the plasma concentration time profile of hCRF following a single intravenous and a single subcutaneous injection in three groups of Sprague-Dawley Crl:CD® :R rats. […] For the intravenous portion of the study, each of the three dose groups consisted of 72 males. Each of these groups was divided into three sets of replicates. Seven days after the intravenous portion of the study, 61 of the 72 animals from each of the three dose groups were randomly selected for the subcutaneous portion of the study. Each dose group was divided into three sets of replicates. Blood samples were taken at multiple time points via orbital sinus bleeding. Following intravenous dosing, blood samples were collected at time points out to 24 hours post dose. Following subcutaneous dosing, blood samples were collected at time points out to 48 hours post dose. Blood samples were collected from three rats in each dose group for each time point. […] All of the surviving animals were euthanized on the third day following subcutaneous dosing.
Plasma samples were prepared and hCRF concentrations in the plasma samples were determine by an ELISA method. […] Pharmacokinetic analyses were conducted for this dose group using the limited data obtained.
(In an ELISA, binding on a coated surface is turned into a signal by an enzyme label.)

Another series deals with T1, CRF R1 (Homo sapiens, UniProt P34998).
T1 sequence (P34998 24-415): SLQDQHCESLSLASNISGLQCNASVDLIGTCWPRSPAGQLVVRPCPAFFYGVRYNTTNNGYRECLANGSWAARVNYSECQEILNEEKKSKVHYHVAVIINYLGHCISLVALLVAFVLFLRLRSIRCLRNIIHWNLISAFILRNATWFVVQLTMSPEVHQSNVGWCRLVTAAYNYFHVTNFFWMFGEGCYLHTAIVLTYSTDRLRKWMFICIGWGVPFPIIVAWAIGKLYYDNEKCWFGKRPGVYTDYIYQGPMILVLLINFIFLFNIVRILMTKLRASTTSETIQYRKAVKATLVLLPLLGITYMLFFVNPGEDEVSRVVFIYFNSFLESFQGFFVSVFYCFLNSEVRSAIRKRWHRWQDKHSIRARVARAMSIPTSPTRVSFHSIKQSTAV
To be noted: cited from earlier work.

Where two headings read alike, the source gives them in different places. Where no end group is shown, it is not given here.

The AUC is concentration integrated over time. Low values mean low exposure, high ones high exposure. One may read the Cmax as the maximum level reached in the sampled fluid or tissue. The bioavailability is the share of a dose that reaches the circulation, judged against a reference dose that is usually intravenous. Low values mean little systemic uptake, high ones much systemic uptake. Turning to `CC[C@H](C)[C@H](NC(=O)[C@@H](NC(=O)[C@H](CCC(=O)O)NC(=O)[C@H](CCSC)NC(=O)[C@H](CC(C)C)NC(=O)[C@H](CCCCN)NC(=O)[C@H](CCCNC(=N)N)NC(=O)[C@H](CC(N)=O)NC(=O)[C@H](CO)NC(=O)[C@H](Cc1c[nH]cn1)NC(=O)[C@H](C)NC(=O)[C@H](CCC(N)=O)NC(=O)[C@H](CCC(N)=O)NC(=O)[C@H](C)NC(=O)[C@H](CC(C)C)NC(=O)[C@H](CCC(N)=O)NC(=O)[C@H](CCC(=O)O)NC(=O)[C@H](C)NC(=O)[C@H](CCCNC(=N)N)NC(=O)[C@H](C)NC(=O)[C@H](CCSC)NC(=O)[C@H](CCC(=O)O)NC(=O)[C@H](CC(C)C)NC(=O)[C@@H](NC(=O)[C@H](CCC(=O)O)NC(=O)[C@H](CCCNC(=N)N)NC(=O)[C@H](CC(C)C)NC(=O)[C@H](CC(C)C)NC(=O)[C@H](Cc1c[nH]cn1)NC(=O)[C@H](Cc1ccccc1)NC(=O)[C@@H](NC(=O)[C@H](CC(C)C)NC(=O)[C@H](CC(=O)O)NC(=O)[C@H](CC(C)C)NC(=O)[C@H](CO)NC(=O)[C@@H](NC(=O)[C@@H]1CCCN1C(=O)[C@@H]1CCCN1C(=O)[C@H](CCC(=O)O)NC(=O)[C@H](CCC(=O)O)NC(=O)[C@@H](N)CO)[C@@H](C)CC)[C@@H](C)O)C(C)C)[C@@H](C)CC)C(N)=O` [hCRF], the AUC is 5.5 ng·h/mL in series [1] (in vivo, 10 ug/kg, IV); 516 ng·h/mL in series [1] (in vivo, 100 ug/kg, IV); 214 ng·h/mL in series [1] (in vivo, 100 ug/kg, SC); 1790 ng·h/mL in series [1] (in vivo, 1000 ug/kg, SC); 4880 ng·h/mL in series [1] (in vivo, IV, 1,000 μg/kg). Moreover, the Cmax in series [1] (in vivo, 10 ug/kg, IV) is 25.1 ± 3.8 ng/mL; in series [1] (in vivo, 100 ug/kg, IV) it was 1040 ± 105 ng/mL; in series [1] (in vivo, 100 ug/kg, SC) it was 108 ± 16.7 ng/mL; in series [1] (in vivo, 1000 ug/kg, SC), 618 ± 78.9 ng/mL; in series [1] (in vivo, IV, 1,000 μg/kg), 7600 ± 488 ng/mL. Further, the clearance in series [1] (in vivo, 10 ug/kg, IV) was 30 ± 3.06 mL/min/kg; in series [1] (in vivo, 100 ug/kg, IV), 3.23 ± 0.26 mL/min/kg; in series [1] (in vivo, IV, 1,000 μg/kg), 3.42 ± 0.18 mL/min/kg. Moreover, the half-life was 9.2 min in series [1] (in vivo, 10 ug/kg, intravenous, 10 μg/kg, single exponential clearance, read-out: half-life); 20.7 min in series [1] (in vivo, 100 ug/kg, intravenous, 100 μg/kg, single exponential clearance, read-out: half-life); 26.7 min in series [1] (in vivo, intravenous, 1,000 μg/kg, single exponential clearance, read-out: half-life); 62.6 ± 5.9 min in series [1] (male, Sprague-Dawley Crl:CD, plasma, 100 ug/kg, SC, 100 μg/kg, read-out: t1/2β (terminal)); 72.1 ± 14.8 min in series [1] (male, Sprague-Dawley Crl:CD, plasma, 1000 ug/kg, SC, 1000 μg/kg, read-out: t1/2β (terminal)). Besides, the bioavailability amounted to 41% in series [1] (in vivo, 100 ug/kg, subcutaneous) and 37% in series [1] (in vivo, subcutaneous, 1,000 μg/kg). The t1/2α in series [1] (IV, 10 μg/kg) is reported as 9.22 ± 1.05 min; in series [1] (IV, 100 μg/kg) it was 20.71 ± 0.92 min; in series [1] (IV, 1,000 μg/kg) it was 26.69 ± 0.62 min; in series [1] (SC, 100 μg/kg) it was 6.96 ± 3.44 min; in series [1] (SC, 1000 μg/kg), 21.56 ± 8.15 min. Also, the Bioavail. in series [1] (SC, 100 μg/kg) came out at 41 ± 6%; in series [1] (SC, 1000 μg/kg) it was 37 ± 5%. Further, the CL in series [1] (SC, 100 μg/kg) came out at 7.78 ± 1.01 mL/min/kg; in series [1] (SC, 1000 μg/kg) it was 9.30 ± 1.05 mL/min/kg. Further, the “dose proportionality of pharmacokinetics” value in series [1] (intravenously or subcutaneously, between 100 and 1,000 μg/kg) was “dose proportional”.

Consider “III: CRF-related peptide Ucn III, also known as stresscopin (FTLSLDVPTNIMNLLFNIAKAKNLRAQAAANAHLMAQI; ends and bridges not checked; UniProt Q969E3 120-157, looked up)”, for which the “affinity for the CRF R1 subtype” value with CRF R1 is reported as “little affinity”.

“Ucn II: CRF-related peptide urocortin II, 26% sequence homology to CRF (IVLSLDVPIGLLQILLEQARARAAREQATTNARILARVGHC; ends and bridges not checked; UniProt Q96RP3 72-112, looked up)”: the “affinity for the CRF R1 subtype” value with CRF R1 is reported as “little affinity”.
